8 compounds from patent publication US20250002489A1, “BIFUNCTIONAL COMPOUNDS FOR DEGRADING ITK VIA UBIQUITIN PROTEOSOME PATHWAY” (NURIX THERAPEUTICS, INC., priority 2021, published 2025) can be followed below.

In this test the target is T1, ITK (Jurkat or Molt4 cells) (Homo sapiens, UniProt Q08881).
T1 construct: either human Jurkat (Clone E6-1 ATCC TIB-152) or Motl4 (ATCC CRL-1552), were plated; endogenous in cells; host or cells: Jurkat Clone E6-1 (ATCC TIB-152) or Molt4 (ATCC CRL-1552)
T1 sequence (Q08881 1-620): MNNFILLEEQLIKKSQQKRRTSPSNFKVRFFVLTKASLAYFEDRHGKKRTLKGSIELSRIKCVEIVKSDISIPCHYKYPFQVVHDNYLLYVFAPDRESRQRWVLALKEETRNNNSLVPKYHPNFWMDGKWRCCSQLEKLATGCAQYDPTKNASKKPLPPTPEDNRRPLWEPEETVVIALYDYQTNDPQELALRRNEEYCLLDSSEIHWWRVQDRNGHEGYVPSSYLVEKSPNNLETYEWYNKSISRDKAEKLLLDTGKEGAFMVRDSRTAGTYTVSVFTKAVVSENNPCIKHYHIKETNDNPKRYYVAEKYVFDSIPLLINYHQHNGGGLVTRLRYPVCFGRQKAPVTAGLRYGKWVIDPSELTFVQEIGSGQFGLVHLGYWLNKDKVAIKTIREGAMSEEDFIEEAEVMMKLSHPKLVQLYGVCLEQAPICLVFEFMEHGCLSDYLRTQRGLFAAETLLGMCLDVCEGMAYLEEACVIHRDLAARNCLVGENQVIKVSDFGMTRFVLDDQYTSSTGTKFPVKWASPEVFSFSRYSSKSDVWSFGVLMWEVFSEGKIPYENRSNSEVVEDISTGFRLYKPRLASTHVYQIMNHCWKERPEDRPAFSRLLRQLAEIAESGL
The test is described as follows: ITK Degradation MSD (Meso Scale Discovery) Assay. The format is cell-based. Conditions: 4 or 6 hrs incubation; for DC50: best fit IC50 used as DC50. As for the experimental part:
Compound dilution series (7-point, 5-fold dilutions in DMSO, rows B—H with replicate in Column 1/2, 3/4, 5/6, 7, and 8 at 2000× the final required concentrations were prepared in 96-well plate (Falcon, cat. no. 353077). Row A, Column 1-8 were control DMSO. The 2000× solutions ranged from 2 mM to 128 nM (final assay concentration range 1 μM to […]). The 2000×solutions were added to cells in 10 μL volume, for a final DMSO concentration of 0.5% and final assay compound concentration of 1×. For the cells, either human Jurkat (Clone E6-1 ATCC TIB-152) or Motl4 (ATCC CRL-1552), were plated at 1×10^6 cells/mL, 100 μL/well ([…]) in complete RPMI (10% FBS, 1% L-glutamine). The cells were incubated with compounds 26-29 for 4 or 6 hrs at 32° C./6% CO2.
Following incubation, plates were centrifuged at 1200 rpm for 5 min. Supernatant was removed and 50 μL of cell lysis buffer (MSD Tris lysis buffer (R60TX), complete Mini EDTA-free protease inhibitor (Sigma 11836170001), Protease Inhibitor Cocktail (Sigma, P2714), Phosphatase Inhibitor Cocktail 2 and 3 (Sigma, P5726 and P0044), Benzonase (Sigma, E1014)) was added to each well. Plate was sealed and shook at 4° C. for 30 min. Plate was centrifuged and 45 μL was removed for plate assay.
Assay plate preparation: Meso Scale Discovery (MSD) multi-array sm spot 96-well plates (Goat anti-Rabbit L^45-RA), were blocked with 3% BSA blocking buffer (3% Bovine Serum Albumin (Sigma A3059)+TBS 0.2% Tween-20) for one hour with gentle rocking at room temperature. Plate was then washed with 200 μL of 1×TBST (TBS 0.2% Tween-20) three times. After the last wash, all liquid was removed and 50 μL per well of capture antibody (abcam ITK Y402-ab32507) was added to plate at a 1:1000 dilution in blocking buffer (see above). Plate was sealed and rocked at room temperature for 2 hrs. Plate was then washed three times with 200 μL of 1×TBST. After the last wash, all liquid was removed and 45 μL of cell lysate (from above) was added to plate. Plate was sealed and rocked overnight at 4° C. The next day, cell lysates were removed, and assay plate was washed three times with 200 μL of 1×TBST. After the last wash, liquid was removed and detection antibody (CST ITK (2F12) #2380) was added at 50 μL per well at a dilution of 1:1000 in blocking buffer. Plate was sealed and rocked at room temperature for 2 hrs. Plate was washed three times with 200 μL of 1×TBST. After the last wash, all liquid was removed, MSD […] sulfo tag (R32AC-1) was diluted to 1:1000 in blocking buffer. 50 μL was added to each well on the plate. Plate was sealed and incubated at room temperature for one hour. Plate was washed three times with 200 μL of 1×TBST. After last wash, all liquid was removed and 150 μL of 1×MSD Read Buffer T (R92PC) was then added to each well for ECL read out.
For reading ECL signal, plate was read on a Meso Scale Discovery (MSD) MESO Sector S 600 plate reader. Percent ITK was then calculated as described below.
Percent ITK remaining per sample was calculated as follows: […]
Using Graphpad Prism, % ITK remaining values were plotted as a function of compound concentration. To determine DC50 and Dmax values, resulting curves were fit to the Prism curve-fitting equation “log(inhibitor) vs response−Variable slope (four parameters)” (reported best fit value IC50 used as DC50).

As to `Cc1ncsc1-c1ccc(CNC(=O)[C@@H]2C[C@@H](O)CN2C(=O)[C@@H](NC(=O)C2(F)CC2)C(C)(C)C)c(OCC(=O)N2CC([C@@H](c3ccccc3)n3cc(NC(=O)c4n[nH]c5c4C[C@@H]4C(F)(F)[C@]4(C)C5)cn3)C2)c1` [Compound 32, (4aS,5aR)-5,5-difluoro-N-(1-((S)-(1-(2-(2-(((2S,4R)-1-((S)-2-(1-fluorocyclopropane-1-carboxamido)-3,3-dimethylbutanoyl)-4-hydroxypyrrolidine-2-carboxamido)methyl)-5-(4-methylthiazol-5-yl)phenoxy)acetyl)azetidin-3-yl)(phenyl)methyl)-1H-pyrazol-4-yl)-5a-methyl-1,4,4a,5,5a,6-hexahydrocyclopropa[f]indazole-3-carboxamide], the Dmax (in general, the greatest extent of degradation seen) is 63.4% and it took 20.2 nM to reach half-maximal degradation (DC50).

As for `CN[C@@H](C)C(=O)N[C@H](C(=O)N1C[C@@H](NC(=O)CCOCCC(=O)N2CC([C@@H](c3ccccc3)n3cc(NC(=O)c4n[nH]c5c4C[C@@H]4C(F)(F)[C@]4(C)C5)cn3)C2)C[C@H]1C(=O)N[C@@H]1CCCc2ccccc21)C1CCCCC1` [Compound 1], the DC50 – broadly, the midpoint of the concentration-degradation curve – turned out to be 251 nM.

For `Cc1ncsc1-c1ccc(CNC(=O)[C@@H]2C[C@@H](O)CN2C(=O)[C@@H](NC(=O)CCOCCC(=O)N2CC([C@@H](c3ccccc3)n3cc(NC(=O)c4n[nH]c5c4C[C@@H]4C(F)(F)[C@]4(C)C5)cn3)C2)C(C)(C)C)cc1` [Compound 16, (4aS,5aR)-5,5-difluoro-N-(1-((S)-(1-(3-(3-(((S)-1-((2S,4R)-4-hydroxy-2-((4-(4-methylthiazol-5-yl)benzyl)carbamoyl)pyrrolidin-1-yl)-3,3-dimethyl-1-oxobutan-2-yl)amino)-3-oxopropoxy)propanoyl)azetidin-3-yl)(phenyl)methyl)-1H-pyrazol-4-yl)-5a-methyl-1,4,4a,5,5a,6-hexahydrocyclopropafindazole-3-carboxamide], half-maximal degradation (DC50) was put at 479 nM.

As to `Cc1ncsc1-c1ccc([C@H](C)NC(=O)[C@@H]2C[C@@H](O)CN2C(=O)[C@@H](NC(=O)c2ncc(N3CCC(C(=O)N4CC([C@@H](c5ccccc5)n5cc(NC(=O)c6n[nH]c7c6C[C@@H]6C(F)(F)[C@]6(C)C7)cn5)C4)CC3)cn2)C(C)(C)C)cc1` [Compound 21, (4aS,5aR)-5,5-difluoro-N-(1-((S)-(1-(1-(2-(((S)-1-((2S,4R)-4-hydroxy-2-(((S)-1-(4-(4-methylthiazol-5-yl)phenyl)ethyl)carbamoyl)pyrrolidin-1-yl)-3,3-dimethyl-1-oxobutan-2-yl)carbamoyl)pyrimidin-5-yl)piperidine-4-carbonyl)azetidin-3-yl)(phenyl)methyl)-1H-pyrazol-4-yl)-5a-methyl-1,4,4a,5,5a,6-hexahydrocyclopropa[f]indazole-3-carboxamide], the Dmax was 95% and the DC50 is 64.7 nM.

For the compound `Cc1ncsc1-c1ccc(CNC(=O)[C@@H]2C[C@@H](O)CN2C(=O)[C@@H](NC(=O)C2(F)CC2)C(C)(C)C)c(OCCCCC(=O)N2CC([C@@H](c3ccccc3)n3cc(NC(=O)c4n[nH]c5c4C[C@@H]4C(F)(F)[C@]4(C)C5)cn3)C2)c1` [Compound 34, (4aS,5aR)-5,5-difluoro-N-(1-((S)-(1-(5-(2-(((2S,4R)-1-((S)-2-(1-fluorocyclopropane-1-carboxamido)-3,3-dimethylbutanoyl)-4-hydroxypyrrolidine-2-carboxamido)methyl)-5-(4-methylthiazol-5-yl)phenoxy)pentanoyl)azetidin-3-yl)(phenyl)methyl)-1H-pyrazol-4-yl)-5a-methyl-1,4,4a,5,5a,6-hexahydrocyclopropa[f]indazole-3-carboxamide], the Dmax was 94% and the half-maximal degradation concentration (DC50) worked out at 10.8 nM.

As for `Cc1ncsc1-c1ccc([C@H](C)NC(=O)[C@@H]2C[C@@H](O)CN2C(=O)[C@@H](NC(=O)CC2CCN(c3ccc(C(=O)N4CC([C@@H](c5ccccc5)n5cc(NC(=O)c6n[nH]c7c6C[C@@H]6C(F)(F)[C@]6(C)C7)cn5)C4)nc3)CC2)C(C)(C)C)cc1` [Compound 22, (4aS,5aR)-5,5-difluoro-N-(1-((S)-(1-(5-(4-(2-(((S)-1-((2S,4R)-4-hydroxy-2-(((S)-1-(4-(4-methylthiazol-5-yl)phenyl)ethyl)carbamoyl)pyrrolidin-1-yl)-3,3-dimethyl-1-oxobutan-2-yl)amino)-2-oxoethyl)piperidin-1-yl)picolinoyl)azetidin-3-yl)(phenyl)methyl)-1H-pyrazol-4-yl)-5a-methyl-1,4,4a,5,5a,6-hexahydrocyclopropa[f]indazole-3-carboxamide], the Dmax amounted to 88% and it took 3.78 nM to reach half-maximal degradation (DC50).

The compound `CN[C@@H](C)C(=O)N[C@H](C(=O)N1CCCC1c1nc(C(=O)c2cccc(OCCOCCC(=O)N3CC([C@@H](c4ccccc4)n4cc(NC(=O)c5n[nH]c6c5C[C@@H]5C(F)(F)[C@]5(C)C6)cn4)C3)c2)cs1)C1CCCCC1` (stereo in doubt) [Compound 5, (4aS,5aR)—N-(1-((S)-(1-(3-(2-(3-(2-((R)-1-((S)-2-cyclohexyl-2-((S)-2-(methylamino)propanamido)acetyl)pyrrolidin-2-yl)thiazole-4-carbonyl)phenoxy)ethoxy)propanoyl)azetidin-3-yl)(phenyl)methyl)-1H-pyrazol-4-yl)-5,5-difluoro-5a-methyl-1,4,4a,5,5a,6-hexahydrocyclopropa[f]indazole-3-carboxamide] showed a DC50 of 14.6 nM.

`CN[C@@H](C)C(=O)N[C@H](C(=O)N1CCCC1c1nc(C(=O)c2cccc(OCCOCCOCCOCCOCCOCCC(=O)N3CC([C@@H](c4ccccc4)n4cc(NC(=O)c5n[nH]c6c5C[C@@H]5C(F)(F)[C@]5(C)C6)cn4)C3)c2)cs1)C1CCCCC1` (stereo in doubt) [Compound 4, (4aS,5aR)—N-(1-((S)-(1-(1-(3-(2-((R)-1-((S)-2-cyclohexyl-2-((S)-2-(methylamino)propanamido)acetyl)pyrrolidin-2-yl)thiazole-4-carbonyl)phenoxy)-3,6,9,12,15-pentaoxaoctadecan-18-oyl)azetidin-3-yl)(phenyl)methyl)-1H-pyrazol-4-yl)-5,5-difluoro-5a-methyl-1,4,4a,5,5a,6-hexahydrocyclopropa[f]indazole-3-carboxamide] yielded a DC50 of 13.6 nM.
